Several values for one entry are separate records, joined by “and”; a condition that tells them apart may be missing. Equal entries are not always repeated. Marks after values point to notes of the source that are not given here.
Tested on: 5α-reductase
Assay: 5α-reductase activity, conversion of testosterone to 5α-dihydrotestosterone in normal human dermal fibroblast cultures (Example 3)
Type: cell-based
Settings: for 5α-reductase activity as percentage of the DMSO group / 5α-DHT formed per culture well, mean / 5α-DHT formed per culture well, single well: 22 hours of incubation; for 5α-DHT formed per culture well, mean / 5α-DHT formed per culture well, single well: DMSO 1% (v/v); for 5α-DHT formed per culture well, mean: mean of triplicate; for 5α-DHT formed per culture well, single well: single replicate; for inhibition of the 5α-reductase activity: text of Example 3
Protocol: It is proposed to evaluate the effect of the products such as methyl oleate (Sigma commercial product, 99% purity), of the methyl esters of avocado and of a Serenoa Repens extract chosen as reference on the 5α-reductase activity. An in vitro model of normal human dermal fibroblast cultures was selected.
The fibroblast culture medium (FCM) consisted of MEM/M199 (3:1, v/v) supplemented with penicillin (50 IU/ml), streptomycin (50 μg/ml), sodium bicarbonate (0.2%, w/v) and FCS (10%, v/v).
The assay system consisted of normal human dermal fibroblasts cultured as a monolayer. The fibroblasts were isolated from a residue from abdominal plastic surgery performed on a person (subject BIOPREDIC No. I0013). The cells were used at the fifth passage; they were cultured until the monolayers were confluent in FCM medium at 37° C. in a humid atmosphere containing 5% CO2.
The fibroblast incubation medium (FIM) consisted of FCM supplemented with tritiated testosterone (1.6×10^−7 M, that is 6.32 μCi/ml) and nonradiolabeled testosterone (3.84×10^−6 M)
The test products and finasteride were taken up in DMSO before being diluted in the incubation medium. The final concentration of DMSO was kept constant and equal to 1% (v/v) in each dilution of test products and reference products.
The fibroblast cultures were preincubated in the presence of the test products or of the reference product for 2 hours before adding the substrate, testosterone. For this step, the test products and the reference product were prepared in the FCM medium.
After preincubation, the fibroblast cultures were incubated in the presence of the test products or of the reference product prepared in the FIM medium for 22 hours at 37° C. in a humid atmosphere containing 5% CO2. Control cultures were incubated in the FIM medium in the absence of test products and of reference product. “DMSO control” cultures were incubated in the FIM medium containing 1% (v/v) of DMSO.
Each experimental condition was tested in triplicate.
After the incubation period, the cells were subjected to the action of ultrasound in the FIM medium. The cellular lysates thus obtained were extracted with dichloromethane. After evaporation, the dry residues were taken up in methanol and were deposited on 60F254 silica plates (MERCK, reference 5554).
Nonradiolabeled standards, testosterone, 5α-dihydro-testosterone and androstenedione, were deposited on each of the plates.
The migration solvent was a mixture of dichloromethane and ether (7:3, v/v) At the end of the migration, the silica plates were read using a BERTHOLD radioactivity scanner.
The nonradiolabeled standards were visualized by spraying 5% sulfuric acid (v/v) over the chromatography plates which were then heated at 100° C. for 10 minutes.
Comparison of the Rf values (relative retardation factor) determined for the standards with those obtained for the various radioactive metabolites allowed the identification of the latter.
The metabolizing of testosterone to 5α-dihydro-testosterone under the various experimental conditions was calculated: the results (areas of the 5α-dihydrotestosterone peaks counted by the BERTHOLD scanner) were expressed in pmol of 5α-dihydro-testosterone formed per culture well. They were also expressed as a percentage of the 5α-reductase activity present in the “DMSO control” group.
The groups of data (control group and treated groups) were treated by a one-way analysis of variance (ANOVA 1, p<0.05), followed by a DUNNETT's test (p<0.05). The effect of the test products and of the reference product was compared with the “DMSO control” group. The effects of the test products were compared to each other by a two-way analysis of variance (ANOVA 2, p<0.05, factor 1=concentration and factor 2=treatment).

## CCCCCCCC/C=C\CCCCCCCC(=O)OC [Methyl oleate, methyl oleate]
1 μg/ml
  5α-reductase activity as percentage of the DMSO group: 76 percentage of the DMSO group
  5α-DHT formed per culture well, mean: 6.48* +/− pmol of 5α-DHT formed/culture well
  5α-DHT formed per culture well, single well: 7.12 pmol of 5α-DHT formed/culture well and 6.24 pmol of 5α-DHT formed/culture well and 6.08 pmol of 5α-DHT formed/culture well
  inhibition of the 5α-reductase activity: 24%
10 μg/ml
  5α-reductase activity as percentage of the DMSO group: 62 percentage of the DMSO group
  5α-DHT formed per culture well, mean: 5.32* +/− pmol of 5α-DHT formed/culture well
  5α-DHT formed per culture well, single well: 3.00 pmol of 5α-DHT formed/culture well and 7.04 pmol of 5α-DHT formed/culture well and 5.92 pmol of 5α-DHT formed/culture well
  inhibition of the 5α-reductase activity: 38%
100 μg/ml
  5α-reductase activity as percentage of the DMSO group: 59 percentage of the DMSO group
  5α-DHT formed per culture well, mean: 5.05* +/− pmol of 5α-DHT formed/culture well
  5α-DHT formed per culture well, single well: 5.44 pmol of 5α-DHT formed/culture well and 5.12 pmol of 5α-DHT formed/culture well and 4.60 pmol of 5α-DHT formed/culture well
  inhibition of the 5α-reductase activity: 41%
Tested at 10 and 100 μg/ml, compared with Serenoa repens extract
  5α-reductase inhibitory activity, in words: significantly higher than that of the Serenoa repens extract
